Experimental data published in the NIST ThermoML archive (doi:10.1021/je900715y).
± gives the expanded uncertainty stated by the source.

Assays:
[1] = xn = mol fraction of the nth substance listed; conditions: 101.3 kPa, Liquid, x2 = 0
[2] = 101.3 kPa, Liquid

Row | SMILES | mass density ([1]; 288.15 K) [kg/m3] | mass density ([1]; 293.15 K) [kg/m3] | mass density ([1]; 298.15 K) [kg/m3] | mass density ([1]; 303.15 K) [kg/m3] | mass density ([1]; 308.15 K) [kg/m3] | mass density ([1]; 313.15 K) [kg/m3] | mass density ([1]; 318.15 K) [kg/m3] | mass density ([1]; 323.15 K) [kg/m3] | mass density ([2]; 288.15 K) [kg/m3] | mass density ([2]; 293.15 K) [kg/m3] | mass density ([2]; 298.15 K) [kg/m3] | mass density ([2]; 303.15 K) [kg/m3] | mass density ([2]; 308.15 K) [kg/m3] | mass density ([2]; 313.15 K) [kg/m3] | mass density ([2]; 318.15 K) [kg/m3] | mass density ([2]; 323.15 K) [kg/m3]
1 | CCCCCCC [heptane] + CCC(C)O | 687.954 ± 0.64 | 683.733 ± 0.64 | 679.494 ± 0.65 | 675.229 ± 0.66 | 670.941 ± 0.66 | 666.621 ± 0.67 | 662.273 ± 0.68 | 657.896 ± 0.68 |  |  |  |  |  |  |  | 
2 | CCCCCCC [heptane] |  |  |  |  |  |  |  |  | 687.954 ± 0.64 | 683.733 ± 0.64 | 679.494 ± 0.65 | 675.229 ± 0.66 | 670.941 ± 0.66 | 666.621 ± 0.67 | 662.273 ± 0.68 | 657.896 ± 0.68
3 | CCC(C)O (centres undefined) [butan-2-ol] |  |  |  |  |  |  |  |  | 810.689 ± 0.55 | 806.646 ± 0.56 | 802.528 ± 0.56 | 798.326 ± 0.57 | 794.03 ± 0.57 | 789.632 ± 0.58 | 785.117 ± 0.58 | 780.515 ± 0.59
